Data taken from paper PMC9329436, “Optimization of the 4-anilinoquin(az)oline scaffold as epidermal growth factor receptor (EGFR) inhibitors for chordoma utilizing a toxicology profiling assay platform” (Scientific Reports, 2022).
Several values for one entry are separate records, joined by “and”; a condition that tells them apart may be missing. Equal values may be shown once.

tested on: U-CH1 chordoma cell line; experiment: Cell viability assay (alamarBlue, 72 h), U-CH1; type: cell-based, human; conditions: n = 4, 72 h
Protocol: (§1) Chordoma cell lines were cultured as described previously[10],[12],[33],[34]. Briefly, U-CH1 and U-CH2 cell lines were cultured in 4:1 IMDM:RPMI medium supplemented with 10% fetal bovine serum (FBS) and 1% penicillin/streptomycin in gel-coated flasks. […] CH22, UM-Chor1, U-CH12, and U-CH7 cell lines were cultured in RPMI medium supplemented with 10% FBS and 1% penicillin/streptomycin. The cell lines all undergo regular mycoplasma screening.
(§2) Cells were seeded in 384 well plates and were treated with test compound in quadruplicate 24 h after plating. Cell viability was assessed at 72 h using alamarBlue (ThermoFisher, USA). […] IC50 values were determined by four-parameter nonlinear regression analyses using GraphPad Prism™ version 8 software (San Diego, CA).

| SMILES | IC50 |
| --- | --- |
| C#Cc1cccc(Nc2c(C#N)cnc3ccc(Br)cc23)c1 [Compound 27] | 22 µM |
| C#Cc1cccc(Nc2c(C#N)cnc3ccc(S(C)(=O)=O)cc23)c1 [Compound 29] | 92 µM |
| C#Cc1cccc(Nc2c(C#N)cnc3cc(Cl)ccc23)c1 [Compound 30] | > 100 µM |
| C#Cc1cccc(Nc2c(C#N)cnc3cc(Br)ccc23)c1 [Compound 31] | > 100 µM |
| C#Cc1cccc(Nc2c(C#N)cnc3cc(OC)ccc23)c1 [Compound 33] | 4.1 µM |

tested on: U-CH2 chordoma cell line; experiment: Cell viability assay (alamarBlue, 72 h), U-CH2; type: cell-based, human; conditions: n = 4, 72 h
Protocol: as §1, §2

| SMILES | IC50 |
| --- | --- |
| C#Cc1cccc(Nc2c(C#N)cnc3ccc(Br)cc23)c1 [Compound 27] | 30 µM |
| C#Cc1cccc(Nc2c(C#N)cnc3ccc(S(C)(=O)=O)cc23)c1 [Compound 29] | 52 µM |
| C#Cc1cccc(Nc2c(C#N)cnc3cc(Cl)ccc23)c1 [Compound 30] | > 100 µM |
| C#Cc1cccc(Nc2c(C#N)cnc3cc(Br)ccc23)c1 [Compound 31] | > 100 µM |
| C#Cc1cccc(Nc2c(C#N)cnc3cc(OC)ccc23)c1 [Compound 33] | 40 µM |

tested on: CH22 patient-derived chordoma cell line; experiment: Cell viability assay (alamarBlue, 72 h), CH22; type: cell-based, human; conditions: Homo sapiens, n = 4, 72 h
Protocol: as §1, §2

| SMILES | IC50 |
| --- | --- |
| C#Cc1cccc(Nc2ncnc3cc(OCCOC)c(OCCOC)cc23)c1 [Erlotinib, reference compound] | > 100 µM |

tested on: UM-Chor1 patient-derived chordoma cell line; experiment: Cell viability assay (alamarBlue, 72 h), UM-Chor1; type: cell-based, human; conditions: Homo sapiens, n = 4, 72 h
Protocol: as §1, §2

| SMILES | IC50 |
| --- | --- |
| C#Cc1cccc(Nc2ncnc3cc(OCCOC)c(OCCOC)cc23)c1 [Erlotinib, reference compound] | 19 µM |

tested on: U-CH12 patient-derived chordoma cell line; experiment: Cell viability assay (alamarBlue, 72 h), U-CH12; type: cell-based, human; conditions: Homo sapiens, n = 4, 72 h
Protocol: as §1, §2

| SMILES | IC50 |
| --- | --- |
| C#Cc1cccc(Nc2ncnc3cc(OCCOC)c(OCCOC)cc23)c1 [Erlotinib, reference compound] | 68 µM |

tested on: U-CH7 patient-derived chordoma cell line; experiment: Cell viability assay (alamarBlue, 72 h), U-CH7; type: cell-based, human; conditions: Homo sapiens, n = 4, 72 h
Protocol: as §1, §2

| SMILES | IC50 |
| --- | --- |
| C#Cc1cccc(Nc2ncnc3cc(OCCOC)c(OCCOC)cc23)c1 [Erlotinib, reference compound] | 95 µM |

tested on: WS1 human fibroblast cell line; experiment: Cell viability assay, WS1 toxicity control; type: cell-based; conditions: Homo sapiens, Fibroblast, n = 4, nonspecific toxicity control
Protocol: as §2

| SMILES | IC50 |
| --- | --- |
| C#Cc1cccc(Nc2ncnc3cc(OCCOC)c(OCCOC)cc23)c1 [Erlotinib, reference compound] | 19 µM |

tested on: HL60 cells; experiment: AsedaSciences SYSTEMETRIC Cell Health Screen (flow cytometry toxicity profiling); conditions: HL60, 4 h, 5 nM–100 µM, probability 0–1, n = 2
Method in brief: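 Risk scores derive from a logistic-regression ML classifier comparing flow-cytometric stress phenotypes with those of 300 reference compounds of known high or low human risk. Phenotypes: light scatter plus fluorescent physiological dyes, twelve parameters, no gating. Compounds tested 5 nM–100 µM (3× steps, duplicate) on HL60 cells, 4 h, 37 °C.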

| SMILES | CM: Cell morphology score | CMI: Cell membrane integrity score | GSH: Glutathione score |
| --- | --- | --- | --- |
| C#Cc1cccc(Nc2ncnc3cc(OCCOC)c(OCCOC)cc23)c1 [Erlotinib, reference compound] | 0.77 | 0.50 and 0.74 | 0.63 and 0.81 |

same assay, conditions: SYSTEMETRIC Cell Health Screen; assay n=2

| SMILES | Cell Health Toxcity Profile CC (DyeCycle Violet) | Cell Health Toxcity Profile CM (Cell morphology) | Cell Health Toxcity Profile CMI (Cell membrane integrity) | Cell Health Toxcity Profile GSH (Glutathione) | Cell Health Toxcity Profile MMP (Mitochondrial membrane depolarization) | Cell Health Toxcity Profile NMI1 (Nuclear membrane integrity 1) | Cell Health Toxcity Profile NMI2 (Nuclear membrane integrity 2) | Cell Health Toxcity Profile ROS (Reactive superoxide species) |
| --- | --- | --- | --- | --- | --- | --- | --- | --- |
| C#Cc1cccc(Nc2c(C#N)cnc3ccc(Br)cc23)c1 [Compound 27] | 0.98 | 1.00 | 1.00 | 0.98 | 0.96 | 0.32 | 0.98 | 1.00 |
| C#Cc1cccc(Nc2c(C#N)cnc3ccc(S(C)(=O)=O)cc23)c1 [Compound 29] | 0.071 | 0.003 | 0.037 | 0.039 | 0.021 | 0.18 | 0.009 | 0.046 |
| C#Cc1cccc(Nc2c(C#N)cnc3cc(Cl)ccc23)c1 [Compound 30] | 0.17 | 0.31 | 0.25 | 0.065 | 0.080 | 0.69 | 0.041 | 0.44 |
| C#Cc1cccc(Nc2c(C#N)cnc3cc(Br)ccc23)c1 [Compound 31] | 0.92 | 0.95 | 0.88 | 0.92 | 0.84 | 0.45 | 0.34 | 0.87 |
| C#Cc1cccc(Nc2c(C#N)cnc3cc(OC)ccc23)c1 [Compound 33] | 0.81 | 0.97 | 0.90 | 0.78 | 0.22 | 0.20 | 0.16 | 0.68 |

same assay, conditions: SYSTEMETRIC Cell Health Screen; classifier output; assay n=2

| SMILES | Cell Health Toxcity Profile CHI |
| --- | --- |
| C#Cc1cccc(Nc2c(C#N)cnc3ccc(Br)cc23)c1 [Compound 27] | 0.75 |
| C#Cc1cccc(Nc2c(C#N)cnc3ccc(S(C)(=O)=O)cc23)c1 [Compound 29] | 0.16 |
| C#Cc1cccc(Nc2c(C#N)cnc3cc(Cl)ccc23)c1 [Compound 30] | 0.35 |
| C#Cc1cccc(Nc2c(C#N)cnc3cc(Br)ccc23)c1 [Compound 31] | 0.59 |
| C#Cc1cccc(Nc2c(C#N)cnc3cc(OC)ccc23)c1 [Compound 33] | 0.44 |

biological target: EGFR (Homo sapiens, UniProt P00533); experiment: ProQinase in-cell EGFR assay (EGFR phosphorylation in A431 cells); type: cell-based; parameters: This cell line endogenously expresses a high level of EGFR; endogenous in cells; host or cells: A431; conditions: ProQinase in-cell EGFR assay, A431 cells, n = 1
Text: In addition, we ran an EGFR in-cell target engagement assay, measuring in-cell EGFR phosphorylation, using the human epidermoid carcinoma cell line A431. This cell line endogenously expresses a high level of EGFR, and stimulation of these cells with human epidermal growth factor (EGF) results in receptor tyrosine autophosphorylation.

Chain of EGFR (P00533 25-1210): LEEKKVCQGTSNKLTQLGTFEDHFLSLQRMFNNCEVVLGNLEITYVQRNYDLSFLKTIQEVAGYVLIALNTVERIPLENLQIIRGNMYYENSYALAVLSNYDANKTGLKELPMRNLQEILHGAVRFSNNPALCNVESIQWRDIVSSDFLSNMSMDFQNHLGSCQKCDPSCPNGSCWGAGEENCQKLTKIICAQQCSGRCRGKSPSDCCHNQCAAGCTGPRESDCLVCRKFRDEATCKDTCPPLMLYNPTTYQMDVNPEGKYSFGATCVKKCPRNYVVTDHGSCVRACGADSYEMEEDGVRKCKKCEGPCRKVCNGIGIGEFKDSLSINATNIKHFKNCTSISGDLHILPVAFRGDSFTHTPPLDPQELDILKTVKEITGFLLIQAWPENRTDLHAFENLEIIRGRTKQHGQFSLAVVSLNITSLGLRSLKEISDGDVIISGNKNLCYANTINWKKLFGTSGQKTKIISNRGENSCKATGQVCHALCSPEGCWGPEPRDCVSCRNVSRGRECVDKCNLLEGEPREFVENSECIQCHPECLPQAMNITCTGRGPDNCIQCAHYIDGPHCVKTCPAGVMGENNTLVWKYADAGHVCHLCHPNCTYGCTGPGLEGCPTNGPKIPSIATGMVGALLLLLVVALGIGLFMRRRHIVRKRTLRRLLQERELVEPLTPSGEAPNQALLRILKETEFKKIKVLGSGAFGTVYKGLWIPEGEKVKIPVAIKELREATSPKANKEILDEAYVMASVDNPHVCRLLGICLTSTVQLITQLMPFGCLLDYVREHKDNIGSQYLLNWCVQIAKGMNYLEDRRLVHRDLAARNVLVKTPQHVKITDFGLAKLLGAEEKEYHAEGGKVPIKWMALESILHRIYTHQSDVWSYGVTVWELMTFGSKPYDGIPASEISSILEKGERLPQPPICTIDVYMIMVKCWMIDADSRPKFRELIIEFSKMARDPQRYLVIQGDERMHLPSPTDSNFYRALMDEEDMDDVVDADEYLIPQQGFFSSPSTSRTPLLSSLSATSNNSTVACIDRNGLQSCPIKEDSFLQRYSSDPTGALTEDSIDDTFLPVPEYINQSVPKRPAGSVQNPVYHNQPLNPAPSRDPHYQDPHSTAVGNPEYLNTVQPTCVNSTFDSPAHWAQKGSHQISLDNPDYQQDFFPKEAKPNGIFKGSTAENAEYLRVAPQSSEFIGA

| IC50 | SMILES |
| --- | --- |
| 12 µM | C#Cc1cccc(Nc2ncnc3cc(F)c(F)cc23)c1 [Compound 6, N-(3-ethynylphenyl)-6,7-difluoroquinazolin-4-amine] |
